Columns and labels:
hIL-6 mRNA = assay: Inhibition of hIL-6 mRNA transcription in LPS-stimulated U937 cells; type: cell-based; settings: Homo sapiens, U-937; PMA-differentiated U937 cells, 1 h pretreatment, 1 ug/mL LPS stimulation, 3 h; read-out: IL-6 activity (Inhibition of hIL-6 mRNA Transcription)
In short: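 U937 cells differentiated 3 days with 60 ng/mL PMA, pretreated 1 h with compound (0.1% DMSO), then stimulated with 1 ug/mL E. coli LPS for 3 h at 37 °C. hIL-6 mRNA measured by one-step TaqMan RT-qPCR, normalized to cyclophilin. Fold expression relative to control; triplicate wells.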

c-myc = assay: Inhibition of c-myc expression (mRNA, real-time PCR) in MV4-11 cells; type: cell-based; settings: Human AML MV4-11 cells, 3 h, cMYC mRNA
In short: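 One-step TaqMan qPCR of cMYC, normalized to an internal control with Cyclophilin probes run, gave fold expression versus DMSO (0.1%) control. Samples: triplicate MV4-11 wells exposed 3 h at 37° C to rising compound concentrations in IMDM with 10% FBS.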

human AML MV-4-11 cells = assay: Inhibition of cell proliferation in MV4-11 cells (CellTiter Aqueous One); type: cell-based; settings: for IC50: MV4-11, 72 h; for Cell Proliferation activity: 72 h
In short: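 IC50 values come from blank-corrected proliferation relative to DMSO controls, read as 490 nm absorbance 3–4 h after CellTiter Aqueous One addition. Before that, cells seeded at 5×10^4/well were exposed for 72 h (37° C, 5% CO2) to triplicate two-fold compound dilutions spanning 30–0.2 μM.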

[1] = target: T1, Brd4 bromodomain 1 (BRD4(1)) (Homo sapiens, UniProt O60885); assay: Inhibition of tetra-acetylated histone H4 binding to Brd4 bromodomain 1 (TR-FRET); settings: tetra-acetylated histone H4 peptide, first bromodomain of Brd4
T1 construct: made in house; host or cells: E. coli BL21(DE3)
In short: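 Serially diluted compound (0.2% DMSO) incubated 2 h at room temperature with 200 nM N-His BRD4 bromodomain 1 and 25-50 nM biotinylated tetra-acetyl H4 peptide, detected via Eu-streptavidin/XL665 anti-His. Loss of 665 nm relative to 620 nm signal gave IC50 from dose-response.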

| IC50 (hIL-6 mRNA) [nM] | IC50 (c-myc) [nM] | IC50 (human AML MV-4-11 cells) [nM] | IC50 [1] [nM] | SMILES | Cell Proliferation activity (human AML MV-4-11 cells) |
| --- | --- | --- | --- | --- | --- |
| 300 to 3000 | 3000 to 30000 | 300 to 3000 | 300 to 3000 | Cc1noc(C)c1-c1ccc2ncn(Cc3ccccc3)c2n1 [Example Compound 26, 4-(3-benzyl-3H-imidazo[4,5-b]pyridin-5-yl)-3,5-dimethylisoxazole] | – |
| 300 to 3000 | ≤ 300 | ≤ 300 | ≤ 300 | Cc1noc(C)c1-c1cc(Br)c2nc(C)n(Cc3ccccc3)c2c1 [compound 121, 4-(1-benzyl-4-bromo-2-methyl-1H-benzo[d]imidazol-6-yl)-3,5-dimethylisoxazole] | – |
| ≤ 300 | 300 to 3000 | 300 to 3000 | ≤ 300 | Cc1noc(C)c1-c1cc([N+](=O)[O-])c2nc(NCc3cccnc3)n(Cc3ccccc3)c2c1 [compound 148, 1-benzyl-6-(3,5-dimethylisoxazol-4-yl)-4-nitro-N-(pyridin-3-ylmethyl)-1H-benzo[d]imidazol-2-amine] | – |
| ≤ 300 | ≤ 300 | ≤ 300 | ≤ 300 | Cc1noc(C)c1-c1cc(N)c2nc(N3CCN(C)CC3)n(Cc3ccccc3)c2c1 [compound 141, 1-benzyl-6-(3,5-dimethylisoxazol-4-yl)-2-(4-methylpiperazin-1-yl)-1H-benzo[d]imidazol-4-amine] | – |
| ≤ 300 | 300 to 3000 | ≤ 300 | ≤ 300 | Cc1noc(C)c1-c1cnc2nc(N)n(Cc3ccccc3)c2c1 [compound 216, 1-benzyl-6-(3,5-dimethylisoxazol-4-yl)-1H-imidazo[4,5-b]pyridin-2-amine] | – |
| 300 to 3000 | ≤ 300 | ≤ 300 | ≤ 300 | Cc1noc(C)c1-c1cc([N+](=O)[O-])c2nc(C)n(CC3CCC3)c2c1 [compound 116, 4-(1-(cyclobutylmethyl)-2-methyl-4-nitro-1H-benzo[d]imidazol-6-yl)-3,5-dimethylisoxazole] | – |
| ≤ 300 | ≤ 300 | 300 to 3000 | ≤ 300 | Cc1noc(C)c1-c1cc(N)c2nc(C)n(CC3CCCC3)c2c1 [compound 133, 1-(cyclopentylmethyl)-6-(3,5-dimethylisoxazol-4-yl)-2-methyl-1H-benzo[d]imidazol-4-amine] | – |
| ≤ 300 | 300 to 3000 | 300 to 3000 | ≤ 300 | Cc1noc(C)c1-c1cnc2nc(C)n(C(C)c3ccccc3)c2c1 (stereo not drawn) [compound 108, 3,5-dimethyl-4-(2-methyl-1-(1-phenylethyl)-1H-imidazo[4,5-b]pyridin-6-yl)isoxazole] | – |
| 300 to 3000 | 3000 to 30000 | 3000 to 30000 | ≤ 300 | Cc1noc(C)c1-c1cnc2ccn(Cc3ccc(F)cc3)c2n1 [Example Compound 50, 4-(5-(4-fluorobenzyl)-5H-pyrrolo[2,3-b]pyrazin-3-yl)-3,5-dimethylisoxazole] | – |
| 300 to 3000 | 3000 to 30000 | 300 to 3000 | ≤ 300 | Cc1noc(C)c1-c1ccc2[nH]c(=O)n(Cc3ccccc3)c2n1 [Example Compound 2, 3-Benzyl-5-(3,5-dimethylisoxazol-4-yl)-1H-imidazo[4,5-b]pyridin-2(3H)-one] | – |
| ≤ 300 | ≤ 300 | 300 to 3000 | ≤ 300 | Cc1noc(C)c1-c1cc(N)c2nc(NCc3ccccc3)n(Cc3ccccc3)c2c1 [compound 152, N2,1-dibenzyl-6-(3,5-dimethylisoxazol-4-yl)-1H-benzo[d]imidazole-2,4-diamine] | – |
| ≤ 300 | ≤ 300 | ≤ 300 | ≤ 300 | Cc1noc(C)c1-c1cc(N)c2nc(N3CCCC3)n(Cc3ccccc3)c2c1 [compound 140, 1-benzyl-6-(3,5-dimethylisoxazol-4-yl)-2-(pyrrolidin-1-yl)-1H-benzo[d]imidazol-4-amine] | – |
| 300 to 3000 | 300 to 3000 | 300 to 3000 | ≤ 300 | COc1ccc(Cn2c(=O)[nH]c3c([N+](=O)[O-])cc(-c4c(C)noc4C)cc32)cc1 [compound 103, 6-(3,5-dimethylisoxazol-4-yl)-1-(4-methoxybenzyl)-4-nitro-1H-benzo[d]imidazol-2(3H)-one] | – |
| 300 to 3000 | 3000 to 30000 | 3000 to 30000 | ≤ 300 | Cc1noc(C)c1-c1cnc2nc(C)n(Cc3ccc(C#N)s3)c2c1 [compound 78, 5-((6-(3,5-dimethylisoxazol-4-yl)-2-methyl-1H-imidazo[4,5-b]pyridin-1-yl)methyl)thiophene-2-carbonitrile] | – |
| 300 to 3000 | 300 to 3000 | 300 to 3000 | ≤ 300 | Cc1noc(C)c1-c1cnc2nc(N3CCOCC3)n(Cc3ccccc3)c2c1 [compound 114, 4-(1-benzyl-6-(3,5-dimethylisoxazol-4-yl)-1H-imidazo[4,5-b]pyridin-2-yl)morpholine] | – |
| 300 to 3000 | 300 to 3000 | 300 to 3000 | ≤ 300 | Cc1noc(C)c1-c1cnc2nc(C)n(Cc3ccc(Cl)cc3)c2c1 [compound 83, 4-(1-(4-chlorobenzyl)-2-methyl-1H-imidazo[4,5-b]pyridin-6-yl)-3,5-dimethylisoxazole] | – |
| 3000 to 30000 | 3000 to 30000 | 3000 to 30000 | 3000 to 30000 | Cc1noc(C)c1-c1cc(NCc2ccccc2)c2ncn(Cc3ccccc3)c2c1 [Example Compound 9, N,1-Dibenzyl-6-(3,5-dimethylisoxazol-4-yl)-1H-benzo[d]imidazol-4-amine] | – |
| 3000 to 30000 | 3000 to 30000 | – | ≤ 300 | Cc1noc(C)c1-c1cnc2nc(C)n(Cc3ccc(C(N)=O)cc3)c2c1 [Example Compound 38, 4-((6-(3,5-dimethylisoxazol-4-yl)-2-methyl-1H-imidazo[4,5-b]pyridin-1-yl)methyl)benzamide] | Not active |
| ≤ 300 | ≤ 300 | ≤ 300 | ≤ 300 | Cc1noc(C)c1-c1cc(N)c2nc(N3CCC3)n(Cc3ccccc3)c2c1 [compound 97, 2-(azetidin-1-yl)-1-benzyl-6-(3,5-dimethylisoxazol-4-yl)-1H-benzo[d]imidazol-4-amine] | – |
| ≤ 300 | ≤ 300 | ≤ 300 | ≤ 300 | Cc1noc(C)c1-c1cc(N)c2nc(NC3CCOCC3)n(Cc3ccccc3)c2c1 [compound 109, 1-benzyl-6-(3,5-dimethylisoxazol-4-yl)-N2-(tetrahydro-2H-pyran-4-yl)-1H-benzo[d]imidazole-2,4-diamine] | – |
| 300 to 3000 | 300 to 3000 | 300 to 3000 | ≤ 300 | Cc1noc(C)c1-c1cnc2[nH]c(=O)n(CC3CC3)c2c1 [compound 118, 1-(cyclopropylmethyl)-6-(3,5-dimethylisoxazol-4-yl)-1H-imidazo[4,5-b]pyridin-2(3H)-one] | – |
| 300 to 3000 | 3000 to 30000 | – | ≤ 300 | Cc1noc(C)c1-c1cc2c(c(C)nn2Cc2ccc(F)cc2)[n+]([O-])c1 [Example Compound 24, 6-(3,5-dimethylisoxazol-4-yl)-1-(4-fluorobenzyl)-3-methyl-1H-pyrazolo[4,3-b]pyridine-4-oxide] | Not active |
| ≤ 300 | ≤ 300 | ≤ 300 | ≤ 300 | CCNc1nc2ncc(-c3c(C)noc3C)cc2n1C(C)c1ccccc1 (stereo not drawn) [compound 113, 6-(3,5-dimethylisoxazol-4-yl)-N-ethyl-1-(1-phenylethyl)-1H-imidazo[4,5-b]pyridin-2-amine] | – |
| 300 to 3000 | 300 to 3000 | 300 to 3000 | ≤ 300 | Cc1noc(C)c1-c1ccc2c(c1)N(Cc1ccccc1)CC(=O)N2 [compound 156, 4-benzyl-6-(3,5-dimethylisoxazol-4-yl)-3,4-dihydroquinoxalin-2(1H)-one] | – |
| ≤ 300 | ≤ 300 | ≤ 300 | ≤ 300 | CCNc1nc2c([N+](=O)[O-])cc(-c3c(C)noc3C)cc2n1C(C)c1ccccc1 (stereo not drawn) [compound 127, 6-(3,5-dimethylisoxazol-4-yl)-N-ethyl-4-nitro-1-(1-phenylethyl)-1H-benzo[d]imidazol-2-amine] | – |
| 300 to 3000 | 300 to 3000 | 300 to 3000 | ≤ 300 | Cc1noc(C)c1-c1cnc2c(N)cn(Cc3ccccc3)c2c1 [compound 100, 1-benzyl-6-(3,5-dimethylisoxazol-4-yl)-1H-pyrrolo[3,2-b]pyridin-3-amine] | – |
| 300 to 3000 | 3000 to 30000 | 3000 to 30000 | 300 to 3000 | Cc1cnn(C)c1-c1cc([N+](=O)[O-])c2nc(C)n(Cc3ccccc3)c2c1 [compound 81, 1-benzyl-6-(1,4-dimethyl-1H-pyrazol-5-yl)-2-methyl-4-nitro-1H-benzo[d]imidazole] | – |
